Measurements: patent publication US9073876B2, “Flap modulators” (JANSSEN PHARMACEUTICA NV, priority 2013, dated 2015)
Structures can show the parent of a compound that is named as a salt.

Target: human FLAP (Homo sapiens (Human), UniProt P20292)
Test: FLAP binding assay (HTRF)
Details: human FLAP-containing membranes, HTRF format; average of two assay plates, duplicates; read-out: FLAP Binding wild type HTRF Ki
Protocol: The ability of the compounds of the present invention to treat a FLAP-mediated disease and/or disorder, or associated symptoms or complications thereof, was determined using the following procedures. Binding assay data represent the average value obtained from two different assay plates, with samples run in duplicate on each plate. Human whole blood assay data represent a single replicate on an assay plate using whole blood from at least one healthy donor.
Data are expressed as a HTRF ratio.

Chain of human FLAP (P20292 whole entry): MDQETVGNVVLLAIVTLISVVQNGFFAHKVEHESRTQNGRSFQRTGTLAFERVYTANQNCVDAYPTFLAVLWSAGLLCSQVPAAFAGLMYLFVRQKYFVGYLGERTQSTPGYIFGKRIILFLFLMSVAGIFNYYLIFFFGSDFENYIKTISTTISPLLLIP

Ki [nM] | Compound
573 | CC(C)CCc1ccc(-c2cnc(N)cn2)c(F)c1Oc1ncccn1 [Example 322, 5-(2-Fluoro-4-isopentyl-3-(pyrimidin-2 yloxy)phenyl)pyrazin-2-amine]
324 | Nc1cnc(-c2ccc(C3CCC3)c(OCC(O)Cn3ccccc3=O)c2F)cn1 (racemic) [Example 51, racemic 1-(3-(3-(5-Aminopyrazin-2-yl)-6-cyclobutyl-2-fluorophenoxy)-2-hydroxypropyl)pyridin-2(1H)-one]
304 | Nc1cnc(-c2ccc(C3CCC3)c(OCc3ccc(F)cc3)c2F)cn1 [Example 28, 5-{4-Cyclobutyl-2-fluoro-3-[(4-fluorobenzyl)oxy]phenyl}pyrazin-2-amine]
358 | Nc1cnc(-c2ccc(CC3CCCCC3)c(Oc3nccc(N)n3)c2F)cn1 [Example 326, 2-(3-(5-Aminopyrazin-2-yl)-6-(cyclohexylmethyl)-2-fluorophenoxy)pyrimidin-4-amine]
974 | Nc1cnc(-c2ccc(C3CCC3)c(OCC(O)CN3CCNC3=O)c2F)cn1 (racemic) [Example 312, racemic 1-{3-[3-(5-Aminopyrazin-2-yl)-6-cyclobutyl-2-fluorophenoxy]-2-hydroxypropyl}imidazolidin-2-one]
354 | Nc1cnc(-c2ccc(C3CCC3)c(OCc3cccc(F)c3F)c2F)cn1 [Example 32, 5-{4-Cyclobutyl-3-[(2,3-difluorobenzyl)oxy]-2-fluorophenyl}pyrazin-2-amine]
> 10000 | Cn1cncc1COc1c(C2CCC2)ccc(-c2cnc(N)cn2)c1F [Example 285, 5-{4-Cyclobutyl-2-fluoro-3-[(1-methyl-1H-imidazol-5-yl)methoxy]phenyl}pyrazin-2-amine trifluoroacetic acid salt]
1500 | Nc1cnc(-c2ccc(C3CCC3)c(OCc3ccc(F)cc3C(F)(F)F)c2F)cn1 [Example 44, 5-(4-Cyclobutyl-2-fluoro-3-{[4-fluoro-2-(trifluoro-methyl)benzyl]oxy}phenyl)pyrazin-2-amine]
> 10000 | COc1c(C2CCC2)ccc(-c2ccc(N)nn2)c1F [Example 219, 6-(4-cyclobutyl-2-fluoro-3-methoxyphenyl)pyridazin-3-amine]
1360 | Cc1ccc(-c2cnc(N)cn2)c(F)c1Oc1nccc(N)n1 [Example 315, 2-[3-(5-Aminopyrazin-2-yl)-2-fluoro-6 methylphenoxy]pyrimidin-4-amine]
> 10000 | Nc1cnc(-c2ccc(C3CCC3)c(OCC(O)Cn3cccnc3=O)c2F)cn1 (racemic) [Example 310, racemic 1-{3-[3-(5-Aminopyrazin-2-yl)-6-cyclobutyl-2-fluorophenoxy]-2-hydroxypropyl}pyrimidin-2(1H)-one]
> 10000 | Cn1cnc(COc2c(C3CCC3)ccc(-c3cnc(N)cn3)c2F)c1 [Example 284, 5-{4-Cyclobutyl-2-fluoro-3-[(1-methyl-1H-imidazol-4-yl)methoxy]phenyl}pyrazin-2-amine trifluoroacetic acid salt]
> 10000 | CN(C)CCCOc1c(C2CCC2)ccc(-c2cnc(N)cn2)c1F [Example 267, 5-{4-Cyclobutyl-3-[3-(dimethylamino)propoxy]-2-fluorophenyl}pyrazin-2-amine]
> 10000 | Nc1cnc(-c2ccc(C3CCC3)c(OCC(O)CN3CCCC3)c2F)cn1 (racemic) [Example 306, racemic 1-[3-(5-Aminopyrazin-2-yl)-6-cyclobutyl-2-fluorophenoxy]-3-pyrrolidin-1-ylpropan-2-ol]
> 10000 | Nc1cnc(-c2ccc(C3CCC3)c(OCC3CCNCC3)c2F)cn1 [Example 298, 5-[4-Cyclobutyl-2-fluoro-3-(piperidin-4-ylmethoxy)phenyl]pyrazin-2-amine hydrogen chloride salt]
1250 | Nc1cnc(-c2ccc(C3CCC3)c(OCc3ccccc3)c2)cn1 [Example 217, 5-[3-(Benzyloxy)-4-cyclobutylphenyl]pyrazin-2-amine]
370 | Cc1noc(COc2c(C3CCC3)ccc(-c3cnc(N)cn3)c2F)n1 [Example 75, 5-{4-Cyclobutyl-2-fluoro-3-[(3-methyl-1,2,4-oxadiazol-5-yl)methoxy]phenyl}pyrazin-2-amine]
> 10000 | Nc1cnc(-c2ccc(C3CCC3)c(OCC3CCOCC3)c2F)cn1 [Example 264, 5-[4-Cyclobutyl-2-fluoro-3-(tetrahydro-2H-pyran-4-ylmethoxy)phenyl]pyrazin-2-amine]
> 10000 | Cc1ccc(-c2cnc(N)cn2)c(F)c1Oc1ncccn1 [Example 314, 5-[2-Fluoro-4-methyl-3-(pyrimidin-2-yloxy)phenyl]pyrazin-2-amine]
> 10000 | CN(C)CC(O)COc1c(C2CCC2)ccc(-c2cnc(N)cn2)c1F (racemic) [Example 307, racemic 1-[3-(5-Aminopyrazin-2-yl)-6-cyclobutyl-2-fluorophenoxy]-3-(dimethylamino)propan-2-ol]
394 | Nc1cnc(-c2ccc(C3CCC3)c(OCc3ccccc3S(F)(F)(F)(F)F)c2F)cn1 [Example 81, 5-(4-Cyclobutyl-2-fluoro-3-{[2-(pentafluoro-lambda~6~- sulfanyl)benzyl]oxy}phenyl)pyrazin-2-amine]
1500 | Nc1cnc(-c2ccc(C3CCC3)c(OCC(=O)O)c2F)cn1 [Example 50, [3-(5-Aminopyrazin-2-yl)-6-cyclobutyl-2-fluorophenoxy]acetic acid]
593 | Oc1c(C2CCC2)ccc(-c2cc3cc[nH]c3nn2)c1F [Example 221, 6-cyclobutyl-2-fluoro-3-(7H-pyrrolo[2,3-c]pyridazin-3-yl)phenol]
> 10000 | CNCC(O)COc1c(C2CCC2)ccc(-c2cnc(N)cn2)c1F (racemic) [Example 304, racemic 1-[3-(5-Aminopyrazin-2-yl)-6-cyclobutyl-2-fluorophenoxy]-3-(methylamino)propan-2-ol]
808 | Nc1cnc(-c2ccc(C3CCC3)c(OCc3cccc(OC(F)(F)F)c3)c2F)cn1 [Example 9, 5-(4-Cyclobutyl-2-fluoro-3-{[3-(trifluoromethoxy)benzyl]oxy}phenyl)-pyrazin-2-amine]
101 | Cn1nc(Oc2c(C3CCC3)ccc(-c3cnc(N)cn3)c2F)c(C#N)c1C(F)(F)F [Example 148, 3-[3-(5-Aminopyrazin-2-yl)-6-cyclobutyl-2-fluorophenoxy]-1-methyl-5-(trifluoromethyl)-1H-pyrazole-4-carbonitrile]
> 10000 | Nc1cnc(-c2ccc(C3CCC3)c(OCC3CCNC3)c2F)cn1 (racemic) [Example 300, racemic 5-[4-Cyclobutyl-2-fluoro-3-(pyrrolidin-3-ylmethoxy)phenyl]pyrazin-2-amine]
800 | Nc1ccnc(Oc2c(C3CCC3)ccc(-c3cc4cc[nH]c4nn3)c2F)n1 [Example 270, 2-[6-Cyclobutyl-2-fluoro-3-(7H-pyrrolo[2,3-c]pyridazin-3-yl)phenoxy]pyrimidin-4-amine]
> 10000 | CN(C)CCOc1c(C2CCC2)ccc(-c2cnc(N)cn2)c1F [Example 268, 5-{4-Cyclobutyl-3-[2-(dimethylamino)ethoxy]-2-fluorophenyl}pyrazin-2-amine]
682 | N#Cc1nc(N)cnc1-c1ccc(C2CCC2)c(O)c1F [Example 173, 6-amino-3-(4-cyclobutyl-2-fluoro-3-hydroxyphenyl)pyrazine-2-carbonitrile]

Compound | Ki [nM]
5-(4-Cyclobutyl-2-fluoro-3- methoxyphenyl)pyridin-2-amine hydrochloride salt [Example 178] | 354
